ChEMBL document CHEMBL1201862, “PubChem BioAssay data set” (2004)
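Five concentrations, 48 hours, 96-well plates. GI50 marks 50% less growth.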 Active and inactive are the calls of the source. Rule as the data show it: active = GI50 up to about 1.1 µM and inactive = higher.

What was measured:
Assay in all cases: NCI tumour cell line growth inhibition, 48 h
[1] = system: MDA-MB-435
[2] = system: PC-3
[3] = system: COLO 205
[4] = system: SK-MEL-28
[5] = system: 786-0
[6] = system: RPMI-8226
[7] = system: NCI-H23
[8] = system: OVCAR-8
[9] = system: T47D
[10] = system: EKVX
[11] = system: MCF7
[12] = system: SN12C
[13] = system: RXF 393
[14] = system: NCI/ADR-RES
[15] = system: HOP-92
[16] = system: Hs-578T
[17] = system: CAKI-1
[18] = system: HT-29
[19] = system: U-251
[20] = system: KM12
[21] = system: A498
[22] = system: SK-OV-3
[23] = system: ACHN
[24] = system: SF-295
[25] = system: SNB-19
[26] = system: OVCAR-4
[27] = system: SK-MEL-2
[28] = system: UO-31
[29] = system: BT-549
[30] = system: MOLT-4
[31] = system: HOP-62
[32] = system: NCI-H460
[33] = system: SW-620
[34] = system: SK-MEL-5
[35] = system: HCT-116
[36] = system: TK-10
[37] = system: UACC-62
[38] = system: DU-145
[39] = system: NCI-H522
[40] = system: HCT-15
[41] = system: OVCAR-3
[42] = system: A549
[43] = system: IGROV-1
[44] = system: CCRF-CEM
[45] = system: SNB-75
[46] = system: SR
[47] = system: LOX IMVI
[48] = system: MDA-MB-231
[49] = system: SF-268
[50] = system: M14
[51] = system: SF-539
[52] = system: UACC-257
[53] = system: OVCAR-5
[54] = system: MDA-N
[55] = system: NCI-H226
[56] = system: Malme-3M
[57] = system: K562
[58] = system: HL-60
[59] = system: HCC 2998

`O=C(O)c1nnsc1-c1ccc(-c2snnc2C(=O)O)cc1` was tested, and the GI50 [1] was 48.2 µM (inactive), the GI50 [2] was 85.9 µM (inactive) and the GI50 [3] was > 100 µM (inactive). The GI50 [4] was > 100 µM (inactive), the GI50 [5] was 43.2 µM (inactive) and the GI50 [6] was 29.4 µM (inactive). For the same molecule, the GI50 [7] was > 100 µM (inactive), the GI50 [8] was > 100 µM (inactive) and the GI50 [9] was > 100 µM (inactive). For the same molecule, the GI50 [10] was 91.6 µM (inactive), the GI50 [11] was 27.7 µM (inactive) and the GI50 [12] was > 100 µM (inactive). The GI50 [13] was > 100 µM (inactive), the GI50 [14] was > 100 µM (inactive) and the GI50 [15] was 68.4 µM (inactive). For the same molecule, the GI50 [16] was > 100 µM (inactive), the GI50 [17] was 58.7 µM (inactive) and the GI50 [18] was > 100 µM (inactive). The GI50 [19] was > 100 µM (inactive), the GI50 [20] was > 100 µM (inactive) and the GI50 [21] was > 100 µM (inactive). For the same molecule, the GI50 [22] was > 100 µM (inactive), the GI50 [23] was > 100 µM (inactive) and the GI50 [24] was > 100 µM (inactive). For the same molecule, the GI50 [25] was > 100 µM (inactive), the GI50 [26] was 29.6 µM (inactive) and the GI50 [27] was > 100 µM (inactive). The GI50 [28] was > 100 µM (inactive), the GI50 [29] was > 100 µM (inactive) and the GI50 [30] was 17.4 µM (inactive). For the same molecule, the GI50 [31] was > 100 µM (inactive), the GI50 [32] was 32.1 µM (inactive) and the GI50 [33] was 39.5 µM (inactive). The GI50 [34] was > 100 µM (inactive), the GI50 [35] was > 100 µM (inactive) and the GI50 [36] was > 100 µM (inactive). For the same molecule, the GI50 [37] was > 100 µM (inactive), the GI50 [38] was > 100 µM (inactive) and the GI50 [39] was 56.6 µM (inactive). For the same molecule, the GI50 [40] was 42 µM, the GI50 [41] was 91.2 µM (inactive) and the GI50 [42] was > 100 µM (inactive). For the same molecule, the GI50 [43] was > 100 µM (inactive), the GI50 [44] was 2.94 µM (inactive) and the GI50 [45] was > 100 µM (inactive). The GI50 [46] was 10.5 µM (inactive), the GI50 [47] was 31.8 µM (inactive) and the GI50 [48] was > 100 µM (inactive). For the same molecule, the GI50 [49] was > 100 µM (inactive), the GI50 [50] was > 100 µM (inactive) and the GI50 [51] was 33.7 µM (inactive). For the same molecule, the GI50 [52] was > 100 µM (inactive), the GI50 [53] was > 100 µM (inactive) and the GI50 [54] was > 100 µM (inactive). For the same molecule, the GI50 [55] was > 100 µM (inactive), the GI50 [56] was 56.8 µM (inactive) and the GI50 [57] was 28.5 µM (inactive). For the same molecule, the GI50 [58] was 37.7 µM (inactive).
For `COc1ccc(-n2c(C)nc3ccc(/N=C/c4ccccc4)cc3c2=O)cc1`, the GI50 [1] was > 100 µM (inactive), the GI50 [2] was > 100 µM (inactive) and the GI50 [59] was > 100 µM (inactive). The GI50 [3] was > 100 µM (inactive), the GI50 [4] was > 100 µM (inactive) and the GI50 [5] was > 100 µM (inactive). The GI50 [6] was 51.2 µM (inactive), the GI50 [7] was > 100 µM (inactive) and the GI50 [8] was > 100 µM (inactive). For the same molecule, the GI50 [9] was > 100 µM (inactive), the GI50 [10] was > 100 µM (inactive) and the GI50 [11] was > 100 µM (inactive). For the same molecule, the GI50 [12] was > 100 µM (inactive), the GI50 [13] was > 100 µM (inactive) and the GI50 [14] was > 100 µM (inactive). For the same molecule, the GI50 [16] was > 100 µM (inactive), the GI50 [17] was > 100 µM (inactive) and the GI50 [18] was > 100 µM (inactive). The GI50 [19] was > 100 µM (inactive), the GI50 [20] was > 100 µM (inactive) and the GI50 [21] was > 100 µM (inactive). For the same molecule, the GI50 [23] was > 100 µM (inactive), the GI50 [24] was > 100 µM (inactive) and the GI50 [25] was > 100 µM (inactive). The GI50 [26] was > 100 µM (inactive), the GI50 [28] was > 100 µM (inactive) and the GI50 [29] was > 100 µM (inactive). For the same molecule, the GI50 [30] was > 100 µM (inactive), the GI50 [31] was > 100 µM (inactive) and the GI50 [32] was > 100 µM (inactive). The GI50 [33] was > 100 µM (inactive), the GI50 [34] was > 100 µM (inactive) and the GI50 [35] was > 100 µM (inactive). The GI50 [36] was > 100 µM (inactive), the GI50 [37] was > 100 µM (inactive) and the GI50 [38] was > 100 µM (inactive). The GI50 [39] was > 100 µM (inactive), the GI50 [40] was over 100 µM and the GI50 [41] was > 100 µM (inactive). The GI50 [43] was > 100 µM (inactive), the GI50 [45] was > 100 µM (inactive) and the GI50 [46] was > 100 µM (inactive). The GI50 [47] was > 100 µM (inactive), the GI50 [48] was > 100 µM (inactive) and the GI50 [49] was > 100 µM (inactive). For the same molecule, the GI50 [52] was > 100 µM (inactive), the GI50 [53] was > 100 µM (inactive) and the GI50 [54] was > 100 µM (inactive). For the same molecule, the GI50 [55] was > 100 µM (inactive), the GI50 [56] was > 100 µM (inactive) and the GI50 [57] was > 100 µM (inactive). The GI50 [58] was > 100 µM (inactive).
In the case of `OC12C3C4CC5C(C4[C@@H]1Br)C2[C@@](O)(c1c(F)c(F)c(F)c(F)c1F)C53` (some centres undefined), the GI50 [1] is reported as 37.6 µM (inactive), the GI50 [2] is reported as 23.3 µM (inactive) and the GI50 [59] is reported as 36.5 µM (inactive). For the same molecule, the GI50 [3] was 39.4 µM (inactive), the GI50 [4] was 39.8 µM (inactive) and the GI50 [5] was 41.7 µM (inactive). For the same molecule, the GI50 [7] was 31.7 µM (inactive), the GI50 [8] was 32 µM (inactive) and the GI50 [9] was 41.4 µM (inactive). For the same molecule, the GI50 [10] was 27.1 µM (inactive), the GI50 [11] was 20.4 µM (inactive) and the GI50 [12] was > 100 µM (inactive). For the same molecule, the GI50 [13] was 24.3 µM (inactive), the GI50 [14] was 27.2 µM (inactive) and the GI50 [15] was 24 µM (inactive). The GI50 [16] was 22.2 µM (inactive), the GI50 [17] was 21.1 µM (inactive) and the GI50 [18] was 27.5 µM (inactive). The GI50 [19] was 38 µM (inactive), the GI50 [20] was 15.7 µM (inactive) and the GI50 [21] was 33.2 µM (inactive). The GI50 [23] was 51.1 µM (inactive), the GI50 [24] was 25.9 µM (inactive) and the GI50 [25] was 37.2 µM (inactive). The GI50 [26] was 28.2 µM (inactive), the GI50 [27] was 24.5 µM (inactive) and the GI50 [28] was 29.8 µM (inactive). The GI50 [29] was 39.4 µM (inactive), the GI50 [30] was 26.5 µM (inactive) and the GI50 [31] was 35.1 µM (inactive). For the same molecule, the GI50 [32] was 33.7 µM (inactive), the GI50 [33] was 43.3 µM (inactive) and the GI50 [34] was 26.2 µM (inactive). The GI50 [35] was 30.8 µM (inactive), the GI50 [36] was 47.8 µM (inactive) and the GI50 [37] was 25.6 µM (inactive). For the same molecule, the GI50 [38] was 41.8 µM (inactive), the GI50 [39] was 29.6 µM (inactive) and the GI50 [40] was 39.8 µM. The GI50 [41] was 23.3 µM (inactive), the GI50 [42] was 33.7 µM (inactive) and the GI50 [43] was 35.6 µM (inactive). For the same molecule, the GI50 [44] was 21.7 µM (inactive), the GI50 [46] was 21.3 µM (inactive) and the GI50 [47] was 32.1 µM (inactive). The GI50 [48] was > 100 µM (inactive), the GI50 [49] was 38.7 µM (inactive) and the GI50 [50] was 37 µM (inactive). The GI50 [51] was 56.4 µM (inactive), the GI50 [52] was 24.8 µM (inactive) and the GI50 [53] was 68.2 µM (inactive). For the same molecule, the GI50 [54] was 34.9 µM (inactive), the GI50 [57] was 21.4 µM (inactive) and the GI50 [58] was 38.2 µM (inactive).
